Experimental data published in publication PMC3653948, “PDZ Domain-Mediated Interactions of G Protein-Coupled Receptors with Postsynaptic Density Protein 95: Quantitative Characterization of Interactions” (PLoS ONE, 2013).
Entries after “also recorded” stand apart in the source; their conditions may differ. Read-outs that look alike come from different tables or passages of the source. Peptide text beside a SMILES is read from it.

Key:
PSD-95 PDZ1 = target: T1, PSD-95 PDZ1 (Homo sapiens, UniProt P78352); experiment: FP competition assay, PSD-95 PDZ1 (probe Cy5-KIF1Bα); type: binding
T1 construct: PSD-95 PDZ1 (aa 61–151); made in house; host or cells: E. coli One Shot BL21 Star (DE3)
Procedure: (§4) FP measurements were performed in black, flat bottom 384-well NBS microplates (Corning) on a Synergy H4 microplatereader (BioTek Instruments) equipped with a 620/40 nm excitation filter, a 680/30 nm emission filter, and a 660 nm dichroic mirror. Polarization values were corrected with blank samples and samples with fluorescent probe alone. At least 10 data points were measured for each curve, and each data point was measured in triplicate. […] All FP measurements were performed in a buffer containing 10 mM HEPES pH 7.4, 150 mM NaCl, and 1% BSA and incubated at least 15 min at room temperature before reading. The signal was stable for more than an hour, showing that the reaction was at equilibrium.
(§5) For the competition binding curves, probe was mixed with a constant concentration of PDZ protein corresponding to the K d and a twofold dilution series of unlabeled peptide in a total volume of 30 µl. The baseline was determined using a sample containing only probe. The IC50 was determined by fitting to a 1∶1 binding model: Y = Ymax − Ymax × X/(X+IC50). The K i was calculated from the IC50 and from the K d for the interaction between the PDZ protein and the probe as described previously [38].

PSD-95 PDZ2 = target: T2, PSD-95 PDZ2 (Homo sapiens, UniProt P78352); experiment: FP competition assay, PSD-95 PDZ2 (probe Cy5-GluN2B); type: binding; settings: read-out: K i PDZ2
T2 construct: PDZ2 (aa 155–249); made in house; host or cells: E. coli One Shot BL21 Star (DE3)
Procedure: as §4, §5

PSD-95 PDZ3 = target: T3, PSD-95 PDZ3 (Homo sapiens, UniProt P78352); experiment: FP competition assay, PSD-95 PDZ3 (probe Cy5-CRIPT); type: binding
T3 construct: made in house; host or cells: E. coli One Shot BL21 Star (DE3)
Procedure: (§1) We used a competition set-up, where a constant concentration of isolated PSD-95 PDZ domain and a labeled reference ligand was titrated with unlabeled peptides from the GPCR C-tail library, typically within a 1–512 µM concentration range, and the resulting curves were fitted to obtain the IC50, which was used to calculate the K i (Figure 1). Three Cy5-labeled peptides with well-documented interactions with PSD-95 were used as reference ligands for the competition assay: Cy5-KIF1Bα was used for PDZ1 [20], Cy5-GluN2B (formerly known as NR2B) was used for PDZ2 and PDZ1-2 [21], and Cy5-CRIPT was used for PDZ3 [22] (Table S1). Competition with unlabeled versions of the reference ligands was used to validate the FP assay by comparison with the literature (Table S2).
(§2) FP measurements were performed in black, flat bottom 384-well NBS microplates (Corning) on a Synergy H4 microplatereader (BioTek Instruments) equipped with a 620/40 nm excitation filter, a 680/30 nm emission filter, and a 660 nm dichroic mirror. Polarization values were corrected with blank samples and samples with fluorescent probe alone. At least 10 data points were measured for each curve, and each data point was measured in triplicate. 25 nM Cy5-labeled probe was used for each assay: Cy5-KIF1Bα for PDZ1, Cy5-GluN2B for PDZ2 and PDZ1-2, and Cy5-CRIPT for PDZ3. All FP measurements were performed in a buffer containing 10 mM HEPES pH 7.4, 150 mM NaCl, and 1% BSA and incubated at least 15 min at room temperature before reading. The signal was stable for more than an hour, showing that the reaction was at equilibrium.
Saturation binding curves were used to determine the functionality of the PDZ domains by comparison with literature values and to calculate K i values from competition curves. Saturation binding curves were performed by mixing probe with a twofold dilution series of PDZ protein in a total volume of 30 µl. The K d was determined by fitting to a 1∶1 binding model: Y = Ymax × X/(X+K d).
(§3) For the competition binding curves, probe was mixed with a constant concentration of PDZ protein corresponding to the K d and a twofold dilution series of unlabeled peptide in a total volume of 30 µl. The baseline was determined using a sample containing only probe. The IC50 was determined by fitting to a 1∶1 binding model: Y = Ymax − Ymax × X/(X+IC50). The K i was calculated from the IC50 and from the K d for the interaction between the PDZ protein and the probe as described previously.

PSD-95 = experiment: FP competition assay, PSD-95 PDZ domains overall (strongest binding domain / non-binders); settings: FP competition with the isolated PDZ domains, peptide typically 1–512 µM
Procedure: as §1, §2, §3

[1] = 25 nM Cy5-KIF1Bα, 10 mM HEPES pH 7.4, 150 mM NaCl, 1% BSA, room temperature, at least 15 min, Ki ± fitting error, read-out: K i PDZ1

| Compound | Interaction with PSD-95 using fluorescence polarization (PSD-95) | also measured |
| --- | --- | --- |
| CC(C)[C@H](NC(=O)[C@H](CS)NC(=O)[C@H](CO)NC(=O)[C@@H](NC(=O)[C@H](CCCCN)NC(=O)[C@H](CCC(=O)O)NC(=O)[C@H](CC(N)=O)NC(=O)[C@@H](NC(=O)CNC(=O)[C@H](CC(=O)O)NC(=O)[C@H](CCCNC(=N)N)NC(=O)[C@H](CC(=O)O)NC(=O)[C@H](CC(=O)O)NC(=O)[C@@H](N)Cc1ccc(O)cc1)C(C)C)C(C)C)C(=O)O [5-HTR2A] (H-YDDRDGVNEKVSCV-OH) |  | Ki (PSD-95 PDZ1; [1]): 160 ± 4 µM; Ki (PSD-95 PDZ2): 46 ± 0.2 µM; Ki (PSD-95 PDZ3; read-out: K i PDZ3): > 1000 µM |
| CC(C)C[C@H](NC(=O)[C@@H](NC(=O)[C@@H](NC(=O)[C@H](CO)NC(=O)[C@@H](NC(=O)[C@H](Cc1c[nH]cn1)NC(=O)CNC(=O)[C@H](CO)NC(=O)[C@H](CO)NC(=O)[C@H](CO)NC(=O)[C@H](CCCNC(=N)N)NC(=O)[C@H](CC(=O)O)NC(=O)[C@H](CC(=O)O)NC(=O)[C@@H](N)Cc1ccc(O)cc1)[C@@H](C)O)[C@@H](C)O)[C@@H](C)O)C(=O)O [CXCR2] (H-YDDRSSSGHTSTTL-OH) |  | Ki (PSD-95 PDZ1; 25 nM Cy5-KIF1Bα, 10 mM HEPES pH 7.4, 150 mM NaCl, 1% BSA, room temperature, mean Ki ± SEM from two or more independent experiments, read-out: K i PDZ1): 280 ± 25 µM; Ki (PSD-95 PDZ2): 370 ± 53 µM; Ki (PSD-95 PDZ3; read-out: K i PDZ3): 370 ± 39 µM |
| CC[C@H](C)[C@H](NC(=O)[C@H](CO)NC(=O)[C@H](CO)NC(=O)[C@H](CC(C)C)NC(=O)[C@H](CCCCN)NC(=O)[C@H](CCC(=O)O)NC(=O)[C@@H](N)Cc1ccc(O)cc1)C(=O)N[C@@H](CCC(=O)O)C(=O)N[C@@H](CO)C(=O)N[C@@H](CC(=O)O)C(=O)N[C@H](C(=O)O)C(C)C [GluN2B, reference compound] (H-YEKLSSIESDV-OH) |  | Ki (PSD-95 PDZ1; unlabeled reference ligand vs Cy5-KIF1Bα, mean Ki ± SEM from two or more independent experiments, read-out: Ki PDZ1 Result (Table S2)): 29 ± 2.5 µM; Ki (PSD-95 PDZ3; FP competition, unlabeled reference ligand vs Cy5-CRIPT, Ki ± fitting error, read-out: Ki PDZ3 Result (Table S2)): > 1000 µM |
| CC[C@H](C)[C@H](NC(=O)[C@H](CO)NC(=O)[C@@H](NC(=O)[C@H](CCC(N)=O)NC(=O)[C@H](CC(C)C)NC(=O)[C@H](CC(=O)O)NC(=O)CNC(=O)[C@H](CC(N)=O)NC(=O)[C@H](CC(C)C)NC(=O)[C@H](CC(C)C)NC(=O)[C@H](CCCNC(=N)N)NC(=O)[C@H](CC(=O)O)NC(=O)[C@H](CC(=O)O)NC(=O)[C@@H](N)Cc1ccc(O)cc1)[C@@H](C)O)C(=O)O [SSTR2A] (H-YDDRLLNGDLQTSI-OH) |  | Ki (PSD-95 PDZ1; [1]): 620 ± 106 µM; Ki (PSD-95 PDZ2): 230 ± 2 µM; Ki (PSD-95 PDZ3; read-out: K i PDZ3): > 1000 µM |
| CC[C@H](C)[C@H](NC(=O)[C@H](CCCNC(=N)N)NC(=O)[C@H](CCSC)NC(=O)[C@@H](NC(=O)[C@H](CO)NC(=O)[C@H](CO)NC(=O)[C@H](CCCCN)NC(=O)[C@H](CCCNC(=N)N)NC(=O)[C@H](CC(=O)O)NC(=O)[C@@H](N)CC(=O)O)[C@@H](C)O)C(=O)N[C@@H](CO)C(=O)N[C@@H](Cc1ccc(O)cc1)C(=O)N[C@@H](CC(C)C)C(=O)O [SSTR3] (H-DDRKSSTMRISYL-OH) |  | Ki (PSD-95 PDZ1; [1]): 610 ± 125 µM; Ki (PSD-95 PDZ1; receptors binding to PDZ1 but not to PDZ2, read-out: K i PDZ1): > 600 µM; Ki (PSD-95 PDZ2): > 1000 µM; Ki (PSD-95 PDZ3; read-out: K i PDZ3): 280 ± 5 µM |
| CC(C)C[C@H](NC(=O)[C@H](CC(C)C)NC(=O)[C@H](CO)NC(=O)[C@H](CC(=O)O)NC(=O)[C@H](CC(N)=O)NC(=O)[C@@H](NC(=O)[C@H](CO)NC(=O)[C@H](CS)NC(=O)[C@H](CC(N)=O)NC(=O)[C@H](CCCNC(=N)N)NC(=O)[C@H](CCCNC(=N)N)NC(=O)[C@H](CC(=O)O)NC(=O)[C@H](CC(=O)O)NC(=O)[C@@H](N)Cc1ccc(O)cc1)[C@@H](C)O)C(=O)O [β2AR] (H-YDDRRNCSTNDSLL-OH) |  | Ki (PSD-95 PDZ1; [1]): > 1000 µM; Ki (PSD-95 PDZ3; read-out: K i PDZ3): > 1000 µM |
| ANGLMQTSKL [SSTR5, synthetic peptide, C-terminal 10 aa of human SSTR5 with N-terminal YDDR/DDR linker] | not to interact |  |
| DRTNHQVRSL [μOR-1A, synthetic peptide, C-terminal 10 aa of human µOR-1A with N-terminal YDDR/DDR linker] | not to interact |  |
| EFKQNGDTSL [P2Y1, synthetic peptide, C-terminal 10 aa of human P2Y1 with N-terminal YDDR/DDR linker] | not to interact |  |
| ESESSSFHSS [CXCR4, synthetic peptide, C-terminal 10 aa of human CXCR4 with N-terminal YDDR/DDR linker] | not to interact |  |
| ETSEASYSGL [CXCR3, synthetic peptide, C-terminal 10 aa of human CXCR3 with N-terminal YDDR/DDR linker] | not to interact |  |
| EVVDSTTSSL [mGlu2, synthetic peptide, C-terminal 10 aa of human mGlu2 with N-terminal YDDR/DDR linker] | not to interact |  |
| GHPLMDSTL [LPA2, synthetic C-tail peptide of human LPA2 with N-terminal YDDR/DDR linker] | not to interact |  |
| GVQPALGVGL [A2B, synthetic peptide, C-terminal 10 aa of human adenosine A2B receptor with N-terminal YDDR/DDR linker] | not to interact |  |
| NDPESLESCF [5-HTR4(a), synthetic peptide, C-terminal 10 aa of human 5-HTR4(a) with N-terminal YDDR/DDR linker] | not to interact |  |
| QRERRQKSDW [μOR-1B2, synthetic peptide, C-terminal 10 aa of human µOR-1B2 with N-terminal YDDR/DDR linker] | not to interact |  |
| QSPFPFPGRV [μOR-1B5, synthetic peptide, C-terminal 10 aa of human µOR-1B5 with N-terminal YDDR/DDR linker] | not to interact |  |
| RDIDGMNKPV [κOR, synthetic peptide, C-terminal 10 aa of human κ opioid receptor (no PDZ motif) with N-terminal YDDR/DDR linker] | not to interact; also recorded: no interaction |  |
| RDYTQSSSSL [mGlu5(b), synthetic peptide, C-terminal 10 aa of human mGlu5(b) with N-terminal YDDR/DDR linker] | not to interact |  |
| SDGPGGGAAA [δOR, synthetic peptide, C-terminal 10 aa of human δ opioid receptor with N-terminal YDDR/DDR linker] | not to interact |  |
| SENATSLTTF [CXCR5, synthetic peptide, C-terminal 10 aa of human CXCR5 with N-terminal YDDR/DDR linker] | not to interact |  |
| SSSVNVSSNL [CXCR1, synthetic peptide, C-terminal 10 aa of human CXCR1 with N-terminal YDDR/DDR linker] | not to interact |  |
| TGEHEVSTGL [CCR5 Mouse, synthetic peptide, C-terminal 10 aa of mouse CCR5 with N-terminal YDDR/DDR linker] | not to interact |  |
| TGEQEISVGL [CCR5 Human, synthetic peptide, C-terminal 10 aa of human CCR5 with N-terminal YDDR/DDR linker] | not to interact |  |
